Earlier results on one substance are cited in patent US20050171000A1, “Three dimensional coordinates of melanocortin-4 receptors” (The Procter & Gamble Company, priority 2003, published 2005).

This series deals with T1, MC4-R (Rattus norvegicus, UniProt P70596).
T1 construct: host or cells: living rats, intraventricular administration (endogenous receptor)
As to conditions: intraventricular administration.

T1 sequence (P70596 whole entry): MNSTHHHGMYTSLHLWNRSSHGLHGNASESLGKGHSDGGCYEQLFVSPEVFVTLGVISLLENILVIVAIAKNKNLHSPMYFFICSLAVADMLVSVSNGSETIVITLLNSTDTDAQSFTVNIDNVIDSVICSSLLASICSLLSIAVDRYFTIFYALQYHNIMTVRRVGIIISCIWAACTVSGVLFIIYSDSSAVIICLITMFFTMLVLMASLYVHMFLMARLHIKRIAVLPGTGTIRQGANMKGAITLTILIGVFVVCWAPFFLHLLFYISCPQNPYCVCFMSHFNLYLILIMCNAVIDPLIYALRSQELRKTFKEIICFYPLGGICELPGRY

For MTII, the food intake entry was “reduced”.
